According to patent publication EP1213583A1, “General method for the covalent immobilisation of indicators in, or onto a support useful for the fabrication of optical sensors” (Innosense S.r.l., priority 2000, dated 2002):
Read-outs that look alike come from different tables or passages of the source.

Assay: pKa determination from absorbance or reflectance spectra vs. pH (four parameter sigmoid fit)
Format: physicochemical
Settings: 25°C, 0.9% NaCl
Protocol: Preferred embodiments of the Invention are illustrated by the following examples. In all cases pKa values of the indicators were obtained at 25°C and constant ionic strength (0.9% NaCl, with buffers at 0.01 M). Absorbance or reflectance spectra of the dyed substrates were taken using a Shimadzu UV-VIS-NIR spectrophotometer model 3101PC or an Ocean Optics PC1000 optical fibre spectrophotometer. pKa data were obtained by plotting the function λb-λ850nm/λa-λ850nm vs. pH, where λb is the absorbance or reflectance at the absorption maximum of the basic form of the indicator dye, λa is absorbance or reflectance at the absorption maximum of the acid form of the indicator dye and λ850nm is the absorption or reflectance at 850 nm. The plots were analysed by fitting the data with the four parameter sigmoid function, f = (a - d)/[1 + (x/c)^b] + d, where a is the asymptotic maximum, b is the slope, c is the pH at inflection or pKa and d is the asymptotic minimum. The fitting was performed using the Marquardt-Levenberg nonlinear least-squares method.

[1] = immobilised by Mannich reaction in Biodyne B nylon 6,6 membrane

pKa (immobilised by Mannich reaction in Biodyne A nylon 6,6 membrane)	pKa (immobilised by Mannich reaction on LoProdyne nylon 6,6 membrane modified with 1,6-diaminohexane)	pKa (indicator in solution, read-out: solution pKa)	SMILES	pKa [1]	solution pKa (indicator in solution)
–	–	–	O=[N+]([O-])c1ccc(N=Nc2c(S(=O)(=O)[O-])cc(O)c3ccc(S(=O)(=O)[O-])cc23)c([N+](=O)[O-])c1.[Na+].[Na+] [nitrazine yellow, 4-(2',4'-dinitrophenylazo)-1-hydroxynaphthalene-3,6-disulfonic acid disodium salt]	5.41	6.60
9.64	9.86	8	O=S1(=O)OC(c2ccc(O)cc2)(c2ccc(O)cc2)c2ccccc21 [phenol red]	8.68	–
